Source: patent US8697898B2, “Medical application of lipid derivatives of dopamine and the methods of their production” (Instytut Medycyny Doswiadczalnej i Klinicznej im. M. …, priority 2011, dated 2014)

Assays:
awake Wistar rats = assay: Respiration in normoxia and hypoxia in the awake rat (plethysmographic chamber); assay type: in vivo; settings: for minute lung ventilation after administration of haloperidol and N-oleoyl-dopamine: haloperidol 0.9 mg/kg i.p. prior to N-oleoyl-dopamine 40 mg/kg i.p.
Procedure: The study was performed in awake Wistar rats in a computerized plethysmographic chamber for small rodents. Respiratory frequency, tidal volume and pulmonary ventilation were measured. The experimental protocol included recordings in normoxia (breathing with atmospheric air), two levels of hypoxic stimulus (8% and 12% O2 in N2), intraperitoneal (i.p.) administration of N-oleoyl-dopamine (in a dose of 40 mg/kg) and repeated recordings for both normoxic and hypoxic states. Additionally, further experiments with the dopamine receptor antagonist haloperidol (in a dose of 0.9 mg/kg, i.p.) were performed. In those experiments, haloperidol was administered prior to N-oleoyl-dopamine and the recordings according the above-mentioned protocol were repeated.
The study was performed in awake Wistar rats in a computerized plethysmographic chamber for small rodents. Respiratory frequency, tidal volume and pulmonary ventilation were measured. The experimental protocol included recordings for normoxia (breathing with atmospheric air), for two levels of hypoxic stimulus (8% and 12% O2 in N2), intraperitoneal (i.p.) administration of 3′-O-methyl-N-oleoyl-dopamine (in a dose of 40 mg/kg), and then repeated recordings for both normoxic and hypoxic states.

[1] = system: rat model of Parkinson's disease
Procedure: Symptoms of the Parkinson's disease, particularly muscle rigidity during flexion and extension movements in the ankle joint, were induced with reserpine (2.5 mg/kg, i.p.) and a-methyl-tyrosine (α-MT, 250 mg/kg, i.p.) administered at a 16-h interval. Afterwards, 3′-O-methyl-N-oleoyl-dopamine (O-Me-OLDA) was administered at a dose of 10 mg/kg and the muscular tone was measured using electromyographic (EMG) techniques. The control groups consisted of a) only vehiculum-treated animals in which no symptoms of Parkinson's disease were induced (control), b) animals who received only 3′-O-methyl-N-oleoyl-dopamine (O-Me-OLDA) and c) animals in which symptoms of Parkinson's disease were induced (reserpine+α-MT), but no other treatment was introduced.
This method is a pharmacological tool for modeling the typical, dopamine-deficiency-related brain symptoms of Parkinson's disease in rats.

[2] = system: anesthetized, paralyzed and artificially ventilated Wistar rats; assay: Respiratory response to hypoxia in the anesthetized rat (integrated phrenic nerve activity); assay type: in vivo
Procedure: The study was performed in anesthetized, paralyzed and artificially ventilated Wistar rats. During the experiments, the integrated activity of the phrenic nerve was recorded. This activity reflects the frequency and tidal volume; their product represents the index of minute lung ventilation. The experimental protocol consisted of control recordings for two levels of the hypoxic stimulus: 14% and 11% O2 in N2. Afterwards, N-oleoyl-dopamine in a dose of 20 mg/kg was given and the recordings were repeated. Additionally, experiments with two dopamine receptor antagonists were performed: first, with the penetrating through the blood-brain barrier D2 dopamine receptor antagonist haloperidol and second, with the non-penetrating through the blood-brain-barrier domperidone. In these studies, after the control recordings, haloperidol (in a dose of 3 mg/kg) or domperidone (in a dose of 0.3 mg/kg) were administered and the recordings repeated. Then, N-oleoyl-dopamine was given and the recordings were repeated.

[3] = system: membrane system of the rat brain; assay: Binding to the rat brain membrane system after intraperitoneal administration (TLC of brain lipids); assay type: in vivo, Wistar rats; settings: 20 mg/kg intraperitoneal
Procedure: N-oleoyl-dopamine was administered to Wistar rats at a dose of 20 mg/kg. After 1, 2, 3 or 24 hours the rat was sacrificed and the brain was resected. From the tissue, the whole lipid fraction, containing all lipids of the brain and the membrane fraction of the rat brain were obtained. Total lipids were obtained by homogenization of the brain in a mixture of chloroform and methanol 2:1 followed by an extraction of the water-soluble fractions and evaporation of the solvent. The membrane phase was obtained according to Xu et al. (Xu, 1998) and extracted with chloroform to obtain membrane lipids. All obtained samples were analyzed by the thin layer chromatography TLC on silica gel plates 60 using a mixture of chloroform and methanol 95:5 as the mobile phase and N-oleoyl-dopamine as the standard. The Retention Factor (Rf) for the N-oleoyl-dopamine standard was equal to 0.24-0.26. At the same level (the same Rf=0.24-0.29) there were bands corresponding to N-oleoyl-dopamine in the biological samples, that is after systemic N-oleoyl-dopamine injection, but not in the control samples obtained with no N-oleoyl-dopamine injection.

[4] = target: T1, catechol-O-methyltransferase (Homo sapiens, UniProt P21964); assay: O-methylation by catechol-O-methyltransferase in vitro; assay type: in vitro ADME; settings: PBS pH=8, 10 mM magnesium ions, S-adenosyl-L-methionine, one hour at 37° C.
T1 sequence (P21964 1-271): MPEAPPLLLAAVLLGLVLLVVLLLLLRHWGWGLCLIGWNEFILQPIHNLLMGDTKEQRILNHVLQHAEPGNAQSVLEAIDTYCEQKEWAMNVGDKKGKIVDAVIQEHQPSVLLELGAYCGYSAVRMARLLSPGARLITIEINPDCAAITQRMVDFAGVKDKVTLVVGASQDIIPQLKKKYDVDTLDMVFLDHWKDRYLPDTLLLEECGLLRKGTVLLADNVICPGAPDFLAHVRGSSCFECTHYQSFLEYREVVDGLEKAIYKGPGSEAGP
Procedure: N-oleoyl-dopamine underwent the reaction of methylation with the catechol-O-methyltransferase in PBS buffer pH=8 with 10 mM magnesium ions as the co-factor and S-adenosyl-L-methionine as the donor of methyl groups. The reaction was conducted for one hour at 37° C. After the termination of the reaction, the reaction mixture was extracted with chloroform to obtain an organic and an aqueous phase. Both phases were analyzed using UV/VIS spectrophotometry and high performance liquid chromatography with mass detection (HPLC/MS). It was shown that the organic phase contained both N-oleoyl-dopamine and 3′-O-methyl-N-oleoyl-dopamine (the substrate and the product of the reaction, respectively), and the aqueous phase S-adenosyl-L-methionine and its demethylated derivative, S-adenosyl-L-homocystein (the substrate and the product of the reaction, respectively). The obtained results were additionally confirmed with the mass spectrometry (MS).

[5] = after injection into the carotid artery; cited from earlier work
rat = settings: cited from earlier work
[6] = N-oleoyl-dopamine given after domperidone 0.3 mg/kg
[7] = N-oleoyl-dopamine given after haloperidol 3 mg/kg

Structure (SMILES)	peak respiratory response after administration (awake Wistar rats; 8% hypoxia, 40 mg/kg i.p.)	resting ventilation during breathing with atmospheric oxygen after administration (awake Wistar rats; normoxia, 40 mg/kg i.p.)	level of muscle tone elevated by reserpine (force needed for flexion and extension of the ankle joint) ([1]; 10 mg/kg, FIG. 1)	muscle rigidity in rats showing symptoms of Parkinson's disease ([1]; reserpine 2.5 mg/kg i.p. + α-MT 250 mg/kg i.p., compound 10 mg/kg)	respiration in the inhibitory phase [2, 6]	response to hypoxia in the stimulatory phase [2, 6]	respiratory response in the first stimulatory phase [2, 7]	respiratory response in the second inhibitory phase [2, 7]	minute lung ventilation after administration of haloperidol and N-oleoyl-dopamine (awake Wistar rats; 8% hypoxia)	peak respiratory response after administration (awake Wistar rats; 12% hypoxia, 40 mg/kg i.p.)	minute lung ventilation after administration of haloperidol and N-oleoyl-dopamine (awake Wistar rats; 12% hypoxia)	peak respiratory response after N-oleoyl-dopamine under blockade of the dopaminergic system (awake Wistar rats; haloperidol 0.9 mg/kg i.p. prior to N-oleoyl-dopamine)	penetration into the brain tissue [3]	O-methylation by catechol-O-methyltransferase [4]	ability to penetrate into the brain [5]	locomotive activity (rat)	respiration in the second inhibitory phase of the hypoxic response ([2]; drug alone)
CCCCCCCC/C=C\CCCCCCCC(=O)NCCc1ccc(O)c(OC)c1 [3′-O-methyl-N-oleoyl-dopamine]	1939±255 ml/min/kg body weight	779.7±148.7 ml/min/kg body weight	decreases nearly down to the control level	abolished muscle rigidity	–	–	–	–	–	–	–	–	–	–	–	–	–
CCCCCCCC/C=C\CCCCCCCC(=O)NCCc1ccc(O)c(O)c1 [N-oleoyl-dopamine]	1338.3±49.5 ml/min/kg body weight	–	–	–	still diminished the respiration	did not change the response to hypoxia	did not restore the respiratory response	still diminished it	1947.3±66.5 ml/min/kg body weight	856.6±73.7 ml/min/kg body weight	1484.0±92.3 ml/min/kg body weight	only a slight reduction	penetrates	undergoes the O-methylation	ability to penetrate into the brain	increases the locomotive activity	–
O=C(CCCN1CCC(O)(c2ccc(Cl)cc2)CC1)c1ccc(F)cc1 [haloperidol, reference compound]	–	–	–	–	–	–	–	–	–	–	–	–	–	–	–	–	diminished the respiration
